From patent US7897620B2, “Methods of using anti-inflammatory compounds” (Cambridge Enterprise Limited, priority 2007, dated 2011)

How the values were obtained:
[1] = test system: lung leukocyte recruitment and T-helper cell polarisation; experiment: Ovalbumin-induced lung inflammation model of asthma (BAL leukocyte count, splenocyte Th1/Th2 ratio); type: in vivo, Brown Norway rat; settings: rat, 30 mg/kg daily oral
Description: Adult Brown Norway rats (200-300 g body weight; n=10 per group) were sensitised by a single intraperitoneal injection of 0.1 mg Ovalbumin on day 0. Each rat then received an intratracheal challenge with a solution of 1% ovalbumin (w/v) on day 8, and with 2% ovalbumin (w/v) on days 15, 18 and 21. The animals were then sacrificed 3 hours after the final challenge on day 21. Note that ovalbumin (Sigma; purest available grade) was made endotoxin-free by passage over EndoTrap™ Red columns (purchased from Cambrex; used in accordance with the manufacturer's instructions), and the endotoxin level was confirmed as <5 EU/mg protein using the LAL assay (QCL-1000™; Cambrex; performed in accordance with the manufacturer's instructions; 1 mg of standard endotoxin contains ˜900,000 EU/mg). […]
On sacrifice, total lung leukocyate recruitment was assessed by performing a broncheoalveolar lavage (BAL) using 4 lots of 3 ml sterile phosphate-buffered saline introduced through a tracheal cannula. For each animal, the BAL washes were combined, and the total cell population counted (using a haemocytometer). […]
The spleen was also removed from each […] and placed in RPMI+10% FCS+antibiotics. […] The resulting cell suspension was then centrifuged (328 g; 5 mins) and washed in RPMI+10% FCS+antibiotics, before being resuspended in fresh media and counted using a haemocytometer. […]

[2] = test system: chemokine-induced migration; experiment: BSCI activity in vitro, chemokine-induced migration (general statements); type: cell-based; settings: prior art peptides compared
[3] = Potency in vivo, model not stated; settings: prior art peptides compared
[4] = in vivo, cited from earlier work
[5] = Pharmacokinetics following a single dose in rat (LC-MS/MS of blood, one-compartment model); type: in vivo; settings: single oral dose
Description: Compounds were administered as a single dose (either 1 mg/kg bodyweight in 5% DMSO via the intravenous route or 3 mg/kg in 1% carboxymethylcellulose via the oral route) to three adult rats (using different rats for each compound and each route of administration).
Blood was then sampled at various time points (including just prior to dose administration) out to 24 hrs post dose, and the level of the various compounds was assessed using a validated LC-MS/MS assay. Briefly, 3-5 μl of the deproteinised sample was applied to a Waters Atlantis (C18 20×2.1 mm, 3 μm bead size) reverse phase chromatography column equilibrated in 0.1% formic acid in 95:5 water:actetonitrile. Over 3.5 minutes bound material was gradient eluted reaching 0.1% formic acid in 5:95 water:acetonitrile, followed by a step gradient back to 0.1% formic acid in 95:5 water:acetonitrile. The column eluent was then directed to an Applied Biosystems API 4000/3200 QTrap MS/MS mass spectrometer, with a Turbolonspray™ ion source operating in positive ion mode. The interface temperature was set at 650° C., with a 40 ms dwell time for each MRM transition, monitoring the following ions:
The internal standard in each determination was the related compound (S)-3-(2′,2′-dimethylpropanoylamino)-caprolactam, which was spiked into the sample prior to deproteinization. The lower limit of quantitation (LLOQ) for this assay was 2.4 ng/ml for each compound except (I′), where it was 38.1 ng/ml.
Following LC-MS/MS analysis of each collected sample, the pharmacokinetic disposition of the compound was modelled using Kinetica software, a well known software package for such applications.

[6] = Water solubility (observation); type: physicochemical

CC(C)(O)c1ccccc1CC[C@@H](SCC1(CC(=O)O)CC1)c1cccc(/C=C/c2ccc3ccc(Cl)cc3n2)c1 [monteleukast]
number of leukocytes in the BAL washes [1]: significantly reduced the number of leukocytes in the BAL washes

c(DCys-DGln-DIle-DTrp-DLys-DGln-DLys-DPro-DAsp-DLeu-DCys)-NH2 [NR58-3.14.3]
fold less potent in vitro [2]: > 25 fold
fold less potent in vivo [3]: > 10,000 fold
half-life period of clearance from blood plasma ([4]; iv): less than 30 minutes
oral bioavailability ([4]; po): not orally bioavailable

CC(C)(C)C(=O)NC1CCCNC1=O (stereo not shown) [Compound (I), 3-(2′,2′-dimethylpropanoylamino)-tetrahydropyridin-2-one]
exposure following a single oral dose, fold higher than the other lactam BSCIs tested [5]: more than 10 fold
water solubility [6]: significant water solubility
